We go through three compounds from US8507411B2, “Neoglycorandomization and digitoxin analogs” (priority 2004, dated 2013).

Data set [1] concerns Hep3B. Kind of data set: High-throughput calcein AM cytotoxicity assay, Hep3B. In kind it is cell-based, human. The text has this: (§1) Standard errors are depicted with error bars.
Data set [2] can be described thus: Hydrolytic stability of the neoglycosidic linkage. In kind it is physicochemical. As to conditions: 3 mM in 1:1 DMSO/buffer, one month. The method, then: FIG. 4 is a graphic representation of the results of studies on the hydrolytic stability of neoglycoside 4α. The chemical stability of the neoglycosidic linkage was examined by monitoring the hydrolytic degradation of neoglycoside 4α in a 3 mM solution of 1:1 DMSO/buffer. Three buffers were used, 50 mM acetate buffer (pH 5), 50 mM phosphate buffer (pH 7), and 50 mM Tris buffer (pH 9). Neoglycoside degradation was monitored by reverse phase HPLC on an Agilent Zorbax Eclipse XDB-C8 column (4.6×150 mm) with a flow rate of 0.8 mL min^−1 and a linear gradient of 49% CH3OH/H2O to 89% CH3OH/H2O over 20 min. At t=0, neoglycoside 4α in 500 μL DMSO was added to 500 μL buffer, and the resulting solution was vortexed for 40 sec, then immediately injected onto the HPLC. Peak areas at 220 nm were used to estimate the neoglycoside/aglycon ratio, which is reported as “percent neoglycoside remaining” [Aneoglycoside/(Aneoglycoside+Aaglycon)] for each of the three buffer systems.
Hydrolytic Stability of 4α. The chemical stability of the neoglycosidic linkage was examined by monitoring the hydrolytic degradation of neoglycoside 4α in a 3 mM solution of 1:1 DMSO/buffer. Three buffers were used, 50 mM acetate buffer (pH 5), 50 mM phosphate buffer (pH 7), and 50 mM Tris buffer (pH 9). Neoglycoside degradation was monitored by reverse phase HPLC on an Agilent Zorbax Eclipse XDB-C8 column (4.6×150 mm) with a flow rate of 0.8 mL min^−1 and a linear gradient of 49% CH3OH/H2O to 89% CH3OH/H2O over 20 min. At t=0, neoglycoside 4α in 500 μL DMSO was added to 500 μL buffer, and the resulting solution was vortexed for 40 sec, then immediately injected onto the HPLC. Peak areas at 220 nm were used to estimate the neoglycoside/aglycon ratio, which is reported as “percent neoglycoside remaining” [Aneoglycoside/(Aneoglycoside+Aaglycon)] for each of the three buffer systems (see FIG. 4).
The chemical stability of the neoglycosidic linkage was examined by monitoring the hydrolytic degradation of neoglycoside 4α in a 3 mM solution of 1:1 DMSO/buffer using buffers at three different pHs.

Data set [3] has as its system A549. The data set can be described thus: High-throughput calcein AM cytotoxicity assay, A549. In kind it is cell-based, human. To be noted: A549 cells.
Excerpt: as §1

In data set [4] the test system is Du145. Kind of data set: High-throughput calcein AM cytotoxicity assay, Du145. The data set is classed as cell-based, human.
Excerpt: as §1

The subject of data set [5] is NCI-H460. Kind of data set: High-throughput calcein AM cytotoxicity assay, NCI-H460. To be noted: NCI-H460 cells. The data set is classed as cell-based, human.
Excerpt: as §1

Data set [6] deals with HCT-116. Kind of data set: High-throughput calcein AM cytotoxicity assay, HCT-116. The data set is classed as cell-based, human. To be noted: HCT-116 cells.
Excerpt: as §1

The subject of data set [7] is MCF7. The data set can be described thus: High-throughput calcein AM cytotoxicity assay, MCF7. In kind it is cell-based, human. As to conditions: MCF7 cells.
Excerpt: as §1

For data set [8], the system named is SK-OV-3. The data set can be described thus: cells. As to conditions: SK-OV-3 cells. In kind it is cell-based, human. The method in brief: (§2)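 RPMI 1640 + 10% FBS (NmuMG: DMEM + 10% FBS + insulin); 10–15k cells/well, 1 h attach; 5-pt 2-fold dose series, 72 h; PBS wash, calcein AM 30 min 37 °C; ex485/em535; 4-PL fit, n ≥ 6.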
The subject of data set [9] is SF-268. The data set can be described thus: cells. The data set is classed as cell-based, human. As to conditions: SF-268 cells. The method in brief: as §2
Data set [10] has as its system NCI/ADR-RES. The data set can be described thus: cells. The data set is classed as cell-based, human. To be noted: NCI/ADR-RES cells. The method in brief:
as §2

The test system of data set [11] is NmuMG. Kind of data set: cells. The data set is classed as cell-based, mouse. The method in brief: as §2
The target in data set [12] is T1, Na+/K+-ATPase (Homo sapiens, UniProt P05023).
T1 construct: endogenous in cells; host or cells: HEK-293
Kind of data set: Non-radioactive rubidium ion uptake assay, HEK-293 cells. In kind it is cell-based. To be noted: read-out: Na+/K+-ATPase Inhibition IC50. The method, then:
(§3) Na/K-ATPase Assays. Inhibition of Na^+/K^+-ATPase on HEK-293 cells and CHO-K1 cells by the library hits was determined by Aurora Biomed, Inc. using a high-throughput non-radioactive rubidium ion uptake assay. Experiments were conducted in duplicate using three different concentrations. Within each experiment, percent inhibition values at the three concentrations were expressed as the percent reduction of the maximum absorption signal observed for a 0 nM control. IC50 values were determined using the following formula: IC50=[(50−low %)/(high %−low %)]×(high conc.−low conc.)+low conc.
(§4) To assess how these structural modifications impact the ability of library members to inhibit Na^+/K^+-ATPases, a fundamental activity of cardiac glycosides (Paula, S., et al., (2005) Biochemistry 44, 498-510), library hits 5β, 15β, 23β, 27β, 33β, 40β, and digitoxin (1) were submitted to a non-radioactive rubidium uptake assay to gauge Na^+/K^+-ATPase inhibition in both […] human embryonic kidney cells and CHO-K1 hamster ovary cells (Gill, S. et al., (2004) ASSAY and Drug Development Technologies 2, 535-542).

For data set [13], the target named is Na+/K+-ATPase (Cricetulus griseus, UniProt A0A8C2N4Z0). Kind of data set: Non-radioactive rubidium ion uptake assay, CHO-K1 cells. In kind it is cell-based, hamster. To be noted: read-out: Na+/K+-ATPase Inhibition IC50. The method, then: as §3, §4
The test system of data set [14] is nine human cancer cell lines and a mouse mammary normal epithelial control line. Kind of data set: High-throughput calcein AM cytotoxicity assay, whole cell line panel. As to conditions: cell line panel, 72 h, calcein AM. The text has this: In the assay, live cells were distinguished by the presence of a ubiquitous intracellular enzymatic activity which converts the non-fluorescent cell-permeable molecule calcein AM to the intensely fluorescent molecule calcein, which is retained within live cells. The IC50 value for each library member represents at least six replicates of dose-response experiments conducted over five concentrations using two-fold dilutions. […] Standard errors are depicted with error bars. Numerical values and corresponding error values can be found in Table 4. Du145: […]; MCF7: human breast carcinoma; HCT-116: human colon carcinoma, Hep3B: human liver carcinoma; SF-268: human CNS glioblastoma; SK-OV-3: human ovary adenocarcinoma; NCI-H460: human lung carcinoma; A549: human lung adenocarcinoma; NCI/ADR-RES: human breast carcinoma; NmuMG: mouse mammary normal epithelial.
Cell Culture: All cell lines except NmuMG were maintained in RPMI 1640 medium from InVitrogen (Cat No. 11875-085) supplemented with 10% w/v fetal bovine serum (FBS) from ICN (Cat No. 2916154) and penicillin-streptomycin (PS) (100 U/mL and 100 μg/mL) from InVitrogen (Cat No. 15140-122). NmuMG cells were maintained in DMEM medium from InVitrogen (Cat No. 11965-084) supplemented with 10% w/v fetal bovine serum (FBS) from ICN (Cat No. 2916154), 10 μg/ml insulin (InVitrogen Cat No 12585-014), and penicillin-streptomycin (PS) (100 U/mL and 100 μg/mL) from InVitrogen (Cat No. 15140-122). Cells were harvested by trypsinization using 0.25% w/v trypsin and 0.1% w/v EDTA from InVitrogen (Cat No. 15-050-057) and then counted in a hemocytometer in duplicate with better than 10% agreement in field counts. Cells were plated at a cell density of 10,000-15,000 cells/well of each Corning Costar 96-well black tissue culture treated microtiter plate (Fisher Cat No. 07-200-627). Cells were grown for 1 h at 37° C., with 5% CO2 in a humidified incubator to allow cell attachment to occur before compound addition.
Library Member Handling and Preparation for Cytotoxicity Assays: Library members were stored at −20° C. under dessicating conditions before the assay. Library member stocks (100×) were prepared in Corning Costar polypropylene 96-well V-bottom polypropylene microtiter plates (Fisher Cat No. 07-200-695). Five serial 1:2 dilutions were made with anhydrous DMSO at 100× the final concentration used in the assay.
Library Member Addition: The library member-containing plates were diluted 1:10 with complete cell culture media. The 10× stocks (10 μL) were added to the attached cells using a Biomek FX liquid handler (Beckman-Coulter). Library member stocks (10 μL) were added to 90 μL of cells in each plate to insure full mixing of stocks with culture media using a Beckman FX liquid handler with 96-well head.
Determination of Cytotoxicity: Cells were incubated with the library members for 72 h before fluorescence reading. Test plates were removed from the incubator and washed 1× in sterile PBS to remove serum containing calcium esterases. Calcein AM reagent (30 μL, […]) was added and the cells were incubated for 30 min at 37° C. Plates were read for emission using a fluorescein filter (excitation 485 nm, emission 535 nm).
IC50 Calculation: For each library member, at least six dose response experiments were conducted. […] To calculate IC50, percent inhibitions were plotted as a function of log [concentration] and then fit to a four-parameter logistic model that allowed for a variable Hill slope using XLfit 4.1.
Cytotoxicity Assays. All cell lines except NmuMG were maintained in RPMI 1640 medium supplemented with 10% w/v fetal bovine serum (FBS) and penicillin-streptomycin (PS) (100 U/mL and 100 μg/mL).

Setting [15] is: NmuMG mouse mammary normal epithelial control line, read-out: IC50, NmuMG.

Like-named read-outs stand apart in the source and are kept apart here.

For the compound `CON([C@@H]1CC[C@@]2(C)[C@H](CC[C@@H]3[C@@H]2CC[C@]2(C)[C@@H](C4=CC(=O)OC4)CC[C@]32O)C1)[C@@H]1O[C@H](CO)[C@@H](O)[C@H](O)[C@H]1O` [4α, D-glucoside], the IC50 is > 25000 nM in [1] (Hep 3B cells, read-out: IC50); > 25000 nM in data set [3] (read-out: IC50); > 25000 nM in data set [4] (Du145 cells, read-out: IC50); > 25000 nM in data set [5] (read-out: IC50); > 25000 nM in data set [6] (read-out: IC50); > 25000 nM in [7] (read-out: IC50). Moreover, the IC50 in [8] (read-out: IC50) is > 25000 nM; in data set [9] (read-out: IC50), > 25000 nM; in data set [10] (read-out: IC50), > 25000 nM; in data set [11] (NmuMG cells (mouse mammary normal epithelial control line), read-out: IC50) it was > 25000 nM. In addition, the hydrolytic stability result in data set [2] (acidic conditions (pH 5)) is “slowly hydrolyzed”; in data set [2] (neutral or basic conditions (pH 7, pH 9)) it was “completely stable”.

D-arabinoside [33β]: the IC50 in data set [12] was > 300000 nM; in data set [13], 170000 nM; in data set [1] (Hep 3B cells, read-out: IC50, Hep 3B), 260 nM; in [3] (read-out: IC50, A549), 340 nM; in [4] (Du145 cells, read-out: IC50, Du145) it was 170 nM; in data set [5] (read-out: IC50, NCI-H460), 330 nM. In addition, the IC50 in [6] (read-out: IC50, HCT-116) was 360 nM; in [7] (read-out: IC50, MCF7) it was 300 nM; in data set [8] (read-out: IC50, SK-OV-3), 470 nM; in data set [9] (read-out: IC50, SF-268), 160 nM; in data set [10] (read-out: IC50, NCI/ADR-RES), 124 nM; in [11] (setting [15]) it was 120 nM. The “cytotoxicity (in words)” value in data set [14] is “closely mimicked this activity”.

As to `CON(C1CCC2(C)C(CCC3C2CCC2(C)C(C4=CC(=O)OC4)CCC32O)C1)C1OC(CO)C(O)C(O)C1O` [40β, D-taloside], the IC50 in data set [12] is > 200000 nM; in data set [13], 180000 nM; in data set [1] (Hep3B, 72 h, calcein AM, read-out: IC50) it was 180 nM; in data set [3] (read-out: IC50, A549) it was 410 nM; in [4] (Du145, 72 h, calcein AM, read-out: IC50) it was 200 nM; in data set [5] (read-out: IC50, NCI-H460), 800 nM. Besides, the IC50 in data set [6] (read-out: IC50, HCT-116) is 1900 nM; in [7] (read-out: IC50, MCF7), 1400 nM; in [8] (read-out: IC50, SK-OV-3), 490 nM; in data set [9] (read-out: IC50, SF-268), 1300 nM; in [10] (read-out: IC50, NCI/ADR-RES), 1900 nM; in data set [11] (setting [15]), 480 nM.
